{"source": "patent US20160095867A1", "about": "“BET INHIBITION THERAPY FOR HEART DISEASE” (DANA-FARBER CANCER INSTITUTE, INC., priority 2013, published 2016)", "key": {"NRVM": {"system": "NRVM", "assay": "PE-mediated cardiomyocyte hypertrophy in NRVM (cell area measurement)", "type": "cell-based, rat", "settings": "nanomolar doses of JQ1 (250 nM), PE 100 μM, 48 hours", "protocol": "NRVM were isolated from the hearts of 2 day old Sprague-Dawley rat pups (Charles River) and maintained under standard conditions as described (Haldar et al., 2010). The cells were differentially plated for 1.5 h in cell culture dishes to remove contaminating non-myocytes. Unless otherwise stated, NRVM were plated at a density of 10^5 cells/mL. Cells were initially plated in growth medium (DMEM supplemented with 5% FBS, 100 U/mL penicillin-streptomycin, and 2 mM L-glutamine) for 24-36 hours and maintained in serum-free media thereafter (DMEM supplemented with 0.1% BSA, 1% insulin-transferrin-selenium liquid media supplement (Sigma 13146), 100 U/mL penicillin-streptomycin, and 2 mM L-glutamine). Media was changed every 2-3 days. Prior to stimulation with agonists, NRVM were maintained in serum-free medium for 48-72 hours. For hypertrophic stimulation, NRVM were incubated with JQ1 versus DMSO at indicated concentrations for 6 h followed by stimulation with PE (100 μM) for indicated timepoints.\nNRVM were plated on glass coverslips in 6-well dishes at a density of 10^5 cells/mL. After treatments, cells were briefly fixed in PBS containing 2% PFA, permeabilized with PBST/0.1% Triton X-100, and blocked in PBST/5% horse serum. Primary antibody was anti-sarcomeric α-actinin (Sigma A7811) at 1:800. Fluorophore-tagged anti-mouse secondary antibody (α-mouse Alexa 488 green) was used at 1:1000 dilution. Coverslips were mounted on glass slides with mounting media containing DAPI. Quantitation of cardiomyocyte cell surface area was performed on α-actinin-stained cardiomyocytes using fluorescent microscopy and NIH Image J software as previously described (Liang et al., 2001). Analysis consisted of at least 100 cardiomyocytes in 20-30 fields at 400× magnification. This process was replicated in a least three independent experiments, and the data were combined."}, "[1]": {"assay": "Treadmill endurance exercise capacity in mice", "type": "in vivo, mouse", "settings": "JQ1 50 mg/kg/day IP, 2-3 weeks (17 days)", "from_the_text": "(§1) For transthoracic echocardiography, mice were anesthetized with 1% inhalational isofluorane and imaged using the Vevo 770 High Resolution Imaging System (Visual Sonics, Inc.) and the RMV-707B 30 MHz probe. Measurements were obtained from M-mode sampling and integrated EKV images taken in the LV short axis at the mid-papillary level (Haldar et al., 2010). Measurements of pressure gradients across the constricted portion of the aorta were obtained by high frequency Doppler as previously described (Liu et al., 2012). Conscious tail-vein systolic blood pressure was measured using the BP2000 Blood Pressure Analysis System (Visitech Systems, Inc.) as recommended by the manufacturer. To allow mice to adapt to the apparatus, we performed daily blood pressure measurements for one week prior to beginning experiments. Treadmill endurance exercise testing was performed on a motorized mouse treadmill (Columbus Instruments) as previously described (Haldar et al., 2012)."}, "[2]": {"assay": "Conscious tail-vein systolic blood pressure in mice", "type": "in vivo, mouse", "settings": "JQ1 50 mg/kg/day IP, 17 days", "from_the_text": "as §1"}, "mice with PE infusion": {"system": "mice with PE infusion", "assay": "Chronic phenylephrine (PE) infusion model of cardiac hypertrophy", "type": "in vivo, mouse", "settings": "PE 75 mg/kg/day minipump, JQ1 from 1.5 days after installation", "from_the_text": "All mice were C57Bl/6J littermate males aged 10-12 weeks. For TAC, mice were anesthetized with ketamine/xylazine, mechanically ventilated (Harvard apparatus), and subject to thoracotomy. The aortic arch was constricted between the left and right carotid arteries using a 7.0 silk suture and a 27-gauge needle as previously described (Hu et al., 2003). In our hands, this protocol a consistent peak pressure gradient of approximately 50 mmHg across the constricted portion of the aorta. For PE infusion, mice were anesthetized using continuous 1% inhalational isofluorane. Mini-osmotic pumps (Alzet 2004, Durect Corp.) were filled with phenylephrine hydrochloride (PE, Sigma) or vehicle (normal saline) and implanted subcutaneously on the dorsal aspect of the mouse. PE was infused at a dose of 75 mg/kg/day for 17 days. Injections of JQ1 or vehicle were begun 1.5 days postoperatively.\nFor transthoracic echocardiography, mice were anesthetized with 1% inhalational isofluorane and imaged using the Vevo 770 High Resolution Imaging System (Visual Sonics, Inc.) and the RMV-707B 30 MHz probe. Measurements were obtained from M-mode sampling and integrated EKV images taken in the LV short axis at the mid-papillary level (Haldar et al., 2010). […] Conscious tail-vein systolic blood pressure was measured using the BP2000 Blood Pressure Analysis System (Visitech Systems, Inc.) as recommended by the manufacturer. […]"}, "[3]": {"system": "Neonatal rat ventricular cardiomyocytes (NRVM)", "assay": "Doxorubicin mediated apoptosis in cultured cardiomyocytes (TUNEL)", "type": "cell-based", "settings": "JQ1 250 nM 3 hours, then Doxo 1 μM 24 hours", "protocol": "Doxorubicin (Doxo) is an anthracycline compound commonly used as cytotoxic chemotherapy for cancer. Doxo causes dose-dependent toxicity to cardiomyocytes and can cause cardiac enlargement, fibrosis and heart failure in patients. Cardiotoxicity is dose-limiting for anthracyclines such as Doxorubicin and Daunorubicin. […] Neonatal rat ventricular cardiomyocytes (NRVM) were treated with or without JQ1 (250 nM) for 3 hours, followed by treatment±Doxo (1 μM) for another 24 hours. Cells were assayed for apoptosis by TUNEL staining and nuclei were counterstained with DAPI."}, "[4]": {"system": "primary Rat Aortic Smooth Muscle Cells (RASMC)", "assay": "PDGF-bb induced pathologic smooth muscle cell activation", "type": "cell-based", "settings": "JQ1 500 nM, PDGF-bb 10 ng/mL", "protocol": "All experiments were performed with primary Rat Aortic Smooth Muscle Cells (RASMC), PDGF-bb (10 ng/mL), and JQ1 (500 nM). JQ1 blocks hallmark features of pathologic smooth muscle activation in response to the agonist PDGF-bb such as (FIG. 14A) proliferation (quantified by radiolabeled thymidine incorporation), (FIG. 14B) migration (quantified using a Transwell migration assay), and (FIG. 14C) pathologic gene induction (qRT-PCR shown for Ptgs2/Cox2). These findings support the efficacy of BET bromodomain inhibition against pathologic smooth muscle growth (n=3-6 per group; *p<0.05 vs. vehicle; **p<0.05 vs. PDGF-bb)."}}}
{"smiles": "Cc1sc2c(c1C)C(c1ccc(Cl)cc1)=N[C@@H](CC(=O)OC(C)(C)C)c1nnc(C)n1-2", "note": "[JQ1]", "values": [{"measurement": "phenylephrine (PE) mediated cellular hypertrophy (cardiomyocyte area)", "setting": "NRVM", "value": "significantly blocked"}, {"measurement": "endurance exercise capacity (time to exhaustion)", "setting": "[1]", "value": "preserved endurance exercise capacity"}, {"measurement": "systemic blood pressure", "setting": "[2]", "value": "does not affect"}, {"measurement": "LV systolic function during chronic PE infusion", "setting": "mice with PE infusion", "value": "without any compromise"}, {"measurement": "development of pathologic cardiac hypertrophy during chronic PE infusion", "setting": "mice with PE infusion", "value": "potently suppressed"}, {"measurement": "Doxo induced cardiotoxicity (apoptosis, TUNEL positive nuclei)", "setting": "[3]", "value": "blocks"}, {"measurement": "PDGF-bb induced migration (Transwell migration assay)", "setting": "[4]", "value": "blocks"}, {"measurement": "PDGF-bb induced pathologic gene induction (qRT-PCR, Ptgs2/Cox2)", "setting": "[4]", "value": "blocks"}, {"measurement": "PDGF-bb induced proliferation (radiolabeled thymidine incorporation)", "setting": "[4]", "value": "blocks"}]}
